One test concerns the target Rat intestinal maltase. As to the kind of experiment: In vitro enzyme inhibition, glucose release from disaccharide. The class given is biochemical. As to conditions: concentration required to inhibit the enzyme to 50% activity. How it is done: Inhibition of glucosidases and glycosidases was detected as previously described. Briefly, assays were performed at the optimum pH of each enzyme, and appropriate disaccharide was provided as substrate for glucosidase release assays. Release of D-glucose was measured using a Glucose B-test (Wako Diagnostics). Appropriate p-nitrophenyl glycoside was added as substrate for additional glycosidase assays, and assays were stopped by adding 400 mM Na2CO3. Release of p-nitrophenol was measured spectrophotometrically at 400 nm.

The next test has as its target T1, Rat intestinal sucrase (Rattus norvegicus, UniProt P23739).
T1 construct: from tissue; host or cells: rat intestine
Described as above. In kind it is biochemical. As to conditions: concentration required to inhibit the enzyme to 50% activity; read-out: IC50.

For the next test, the target named is T2, ER α-glucosidase I (Homo sapiens, UniProt Q13724).
T2 construct: endogenous in cells; host or cells: primary human monocyte-derived macrophages (MDMΦ)
T2 sequence (Q13724 1-837): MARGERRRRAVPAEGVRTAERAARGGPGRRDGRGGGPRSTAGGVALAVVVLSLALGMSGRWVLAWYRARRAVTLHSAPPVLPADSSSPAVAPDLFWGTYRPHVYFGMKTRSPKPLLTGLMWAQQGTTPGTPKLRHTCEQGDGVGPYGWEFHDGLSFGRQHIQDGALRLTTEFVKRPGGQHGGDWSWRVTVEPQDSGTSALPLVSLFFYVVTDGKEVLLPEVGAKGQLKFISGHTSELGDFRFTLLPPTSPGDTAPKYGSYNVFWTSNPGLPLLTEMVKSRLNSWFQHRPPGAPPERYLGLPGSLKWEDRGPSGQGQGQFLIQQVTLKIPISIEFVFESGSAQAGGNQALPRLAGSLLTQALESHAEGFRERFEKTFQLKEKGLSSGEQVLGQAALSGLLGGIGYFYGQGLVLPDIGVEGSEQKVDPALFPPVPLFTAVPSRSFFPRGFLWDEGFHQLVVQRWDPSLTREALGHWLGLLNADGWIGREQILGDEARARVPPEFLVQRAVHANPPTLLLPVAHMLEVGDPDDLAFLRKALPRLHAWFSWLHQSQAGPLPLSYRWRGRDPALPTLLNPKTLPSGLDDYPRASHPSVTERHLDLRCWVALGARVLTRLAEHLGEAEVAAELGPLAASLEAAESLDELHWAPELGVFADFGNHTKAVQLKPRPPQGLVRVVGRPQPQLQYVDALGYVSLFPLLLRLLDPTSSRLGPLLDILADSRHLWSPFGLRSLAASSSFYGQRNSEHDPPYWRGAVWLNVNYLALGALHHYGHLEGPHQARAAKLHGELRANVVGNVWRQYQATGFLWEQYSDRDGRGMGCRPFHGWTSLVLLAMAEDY
As to the kind of experiment: Free oligosaccharide analysis in MDMΦs: Glc3Man5GlcNAc1. In kind it is cell-based. The following applies: 48 h; for FOS representative of ER α-glucosidase I inhibition (Glc3Man5GlcNAc1): MNTD of iminosugar (NB-DNJ 100 μM), uninfected MDMΦs; for accumulation of Glc3Man5GlcNAc1: MDMΦs. How it is done:
MDMΦ were infected with DENV2 16681 diluted to a multiplicity of infection (MOI) of 1 in X-VIVO10 without supplements for 90 minutes (20°C, with rocking). Upon removal of virus, fresh MDMΦ growth medium without IL-4 but containing serial dilutions of drug or control was placed on the cells, and cells were incubated for 48 hours (37°C, 5% CO2). For collection of infectious virus, supernatant was harvested and centrifuged for 5 minutes (room temperature, 400 x g) to pellet any cells/debris, and supernatants were aliquoted and stored at -80°C until analysis by plaque assay. In the case of FOS and GSL assays where MDMΦ were uninfected, treatments were essentially as above except that no virus was added and cells were washed three times with sterile PBS after 24 or 48 hours as per sample time point. On the third wash, cells were removed from tissue culture plastic by mechanical disruption (scraping) and transferred to microcentrifuge tubes for centrifugation (room temperature, 4000 x g, 5 minutes). Cells were lysed by three cycles of freeze-thawing (alternating room temperature and –80°C) in deionised H2O and stored at –80°C for subsequent protein, FOS, or GSL assay.
MDMΦ FOS were detected as previously described by Alonzi et al.. Cells were cultured in 6-well plates as described above, and protein lysates were prepared according to the freeze/thaw protocol. Following cell lysis, samples were subjected to mixed-bed ion exchange and then lyophilised. FOS were labelled with 2-aminobenzoic acid (2-AA) and purified using a DPA-6S column (Sigma). Unconjugated 2-AA was removed by phase splitting with ethyl acetate, and samples were lyophilised and resuspended in water and then purified using a con-A column. Glycans were separated by normal phase-high performance liquid chromatography (NP-HPLC), and peak area was used to assess molar quantity in comparison to standards of known identity and quantity. FOS generation was normalised to protein concentration based on a modified Bradford assay as previously described. Briefly, cell lysates were added in a 1:1 volumetric ratio to 1x Bradford Quick Start Reagent (Bio-Rad) and incubated at 20°C for 5 minutes. Absorbance values (Axxx) at 595 nm and 420 nm were measured, and the ratio of A595 to A420 was used to determine protein concentration in comparison to a serially diluted standard of bovine serum albumin.

A word on the IC50: it is the concentration at which inhibition is half-maximal.

T1 sequence (P23739 whole entry): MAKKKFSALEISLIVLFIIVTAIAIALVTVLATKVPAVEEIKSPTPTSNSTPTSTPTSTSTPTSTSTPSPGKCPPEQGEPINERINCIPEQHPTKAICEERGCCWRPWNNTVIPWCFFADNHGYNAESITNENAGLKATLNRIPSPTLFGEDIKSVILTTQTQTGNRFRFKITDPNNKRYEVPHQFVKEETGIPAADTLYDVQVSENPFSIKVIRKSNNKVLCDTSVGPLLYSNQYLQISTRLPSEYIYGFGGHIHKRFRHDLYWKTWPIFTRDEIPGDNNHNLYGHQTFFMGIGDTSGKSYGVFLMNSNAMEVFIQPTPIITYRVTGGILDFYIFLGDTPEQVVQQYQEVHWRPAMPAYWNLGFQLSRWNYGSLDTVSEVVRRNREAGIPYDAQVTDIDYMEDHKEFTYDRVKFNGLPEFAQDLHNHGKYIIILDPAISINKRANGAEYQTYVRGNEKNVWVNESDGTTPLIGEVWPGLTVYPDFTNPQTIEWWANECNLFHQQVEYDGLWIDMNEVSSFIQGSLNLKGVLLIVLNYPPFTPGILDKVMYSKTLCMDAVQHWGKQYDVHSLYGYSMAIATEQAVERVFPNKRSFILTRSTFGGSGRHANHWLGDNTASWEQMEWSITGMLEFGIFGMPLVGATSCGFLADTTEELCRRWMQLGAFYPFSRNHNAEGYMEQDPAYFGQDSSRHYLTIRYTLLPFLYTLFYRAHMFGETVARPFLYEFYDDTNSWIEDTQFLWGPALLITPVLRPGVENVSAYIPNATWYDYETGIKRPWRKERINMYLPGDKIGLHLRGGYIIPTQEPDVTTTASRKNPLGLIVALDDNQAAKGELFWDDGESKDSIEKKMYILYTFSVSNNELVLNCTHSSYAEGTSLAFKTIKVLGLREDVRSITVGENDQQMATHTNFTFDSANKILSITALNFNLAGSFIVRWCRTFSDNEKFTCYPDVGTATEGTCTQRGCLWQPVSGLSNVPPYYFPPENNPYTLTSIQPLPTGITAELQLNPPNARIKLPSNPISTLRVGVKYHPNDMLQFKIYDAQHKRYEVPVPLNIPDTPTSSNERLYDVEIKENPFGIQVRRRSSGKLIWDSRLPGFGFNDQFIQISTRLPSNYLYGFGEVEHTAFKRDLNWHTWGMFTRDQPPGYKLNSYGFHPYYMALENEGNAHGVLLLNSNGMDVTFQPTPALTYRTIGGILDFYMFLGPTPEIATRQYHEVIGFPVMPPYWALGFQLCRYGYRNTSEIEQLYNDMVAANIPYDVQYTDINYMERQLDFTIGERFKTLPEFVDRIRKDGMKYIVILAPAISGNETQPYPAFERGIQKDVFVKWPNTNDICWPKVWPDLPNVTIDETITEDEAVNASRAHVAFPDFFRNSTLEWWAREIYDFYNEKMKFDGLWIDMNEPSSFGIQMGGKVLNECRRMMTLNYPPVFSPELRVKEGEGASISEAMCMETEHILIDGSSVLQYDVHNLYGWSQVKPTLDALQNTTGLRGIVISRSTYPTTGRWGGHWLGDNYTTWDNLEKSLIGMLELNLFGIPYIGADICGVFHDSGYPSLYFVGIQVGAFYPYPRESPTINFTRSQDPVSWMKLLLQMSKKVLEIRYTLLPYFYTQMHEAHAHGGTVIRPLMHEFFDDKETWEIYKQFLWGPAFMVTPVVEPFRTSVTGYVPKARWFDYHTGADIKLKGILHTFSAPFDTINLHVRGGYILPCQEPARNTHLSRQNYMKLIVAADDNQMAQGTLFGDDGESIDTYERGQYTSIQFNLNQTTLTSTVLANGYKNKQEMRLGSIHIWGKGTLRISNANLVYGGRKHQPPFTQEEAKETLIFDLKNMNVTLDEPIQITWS

Take `CCCCN1C[C@H](O)[C@@H](O)[C@@H](O)[C@H]1CO` [NB-DGJ]: the IC50 against Rat intestinal maltase and at Rat intestinal sucrase was above 1000 µM each time. Further, the “FOS representative of ER α-glucosidase I inhibition (Glc3Man5GlcNAc1)” value on ER α-glucosidase I is “fail to produce detectable ER α-glucosidase associated FOS”.
On to `CCCC(=O)O[C@H]1CN2CC[C@H](O)[C@@H]2[C@@H](O)[C@@H]1O` [Celgosivir, 6-O-butanoyl-castanospermine], for which the IC50 on Rat intestinal maltase was 17 µM; at Rat intestinal sucrase, 2.7 µM. The “accumulation of Glc3Man5GlcNAc1” value is recorded as “not Glc3Man5GlcNAc1” on ER α-glucosidase I (1 μM, all donors); “increasing accumulation of Glc3Man5GlcNAc1” on ER α-glucosidase I (31.6 and 100 μM).
Take `CCCCN1C[C@H](O)[C@@H](O)[C@H](O)[C@H]1CO` [NB-DNJ, N-butyl-DNJ]: the figures for the IC50 against Rat intestinal maltase and at Rat intestinal sucrase were 1.1 µM and 0.44 µM, respectively. Further, the “accumulation of Glc3Man5GlcNAc1” value on ER α-glucosidase I (1 μM, all donors) was “not Glc3Man5GlcNAc1”. For the same molecule, the “FOS representative of ER α-glucosidase I inhibition (Glc3Man5GlcNAc1)” value on ER α-glucosidase I was “accumulation of peaks representative of inhibition of both α-glucosidases”.
For the molecule `CCCCCCCCCN1C[C@H](O)[C@@H](O)[C@@H](O)[C@H]1CO` [NN-DGJ], the half-inhibitory concentration (IC50) against Rat intestinal maltase and at Rat intestinal sucrase was above 1000 µM throughout. On ER α-glucosidase I, the “FOS representative of ER α-glucosidase I inhibition (Glc3Man5GlcNAc1)” value is on record as “fail to produce detectable ER α-glucosidase associated FOS”.

The values are drawn from publication PMC4790851, “Iminosugars Inhibit Dengue Virus Production via Inhibition of ER Alpha-Glucosidases—Not Glycolipid Processing Enzymes” (PLoS Neglected Tropical Diseases, 2016).
